Data from patent US20090074795A1, “Methods for addressing ocular diseases through interference with the wnt signaling pathway” (priority 2007, published 2009).

Legend:
[1] = test system: primary RCEC; experiment: HIF-1 activation and VEGF expression induced by LiCl in primary RCEC; assay type: cell-based, bovine; conditions: 50 mM LiCl, 24 hours
Method: Blockade of the wnt pathway by DKK1 down-regulates VEGF and HIF-1 expression and reduces vascular leakage in the retina of diabetic rats. To activate the wnt pathway, primary RCEC were treated with 50 mM LiCl, a specific activator of the wnt pathway, in the presence or absence of 85 ng/ml DKK1, a specific inhibitor of the wnt pathway, or BSA for 24 hours. Hypoxia was used as a positive control for HIF-1 activation. The HIF-1 nuclear translocation, a key step in its activation, was measured by immunocytochemistry. Both LiCl and hypoxia increased nuclear levels of HIF-1α, indicating an increased nuclear translocation.
According to embodiments of experimental data, RCEC were exposed to normoxia (FIG. 17A), hypoxia (1% O2) (FIG. 17B), 50 mM LiCl with BSA (FIG. 17C), or 50 mM LiCl plus 85 ng/ml DKK1 (FIG. 17D) for 24 hours. The nuclear translocation of HIF-1α was determined by immunocytochemistry with an antibody against HIF-1α. […] In FIG. 17E, the total levels of VEGF and HIF-1α were determined by western blot analysis with an antibody against HIF-1α or VEGF.

[2] = test system: bovine retinal capillary endothelial cells (BRCEC); experiment: β-catenin activation by high glucose in BRCEC; assay type: cell-based; conditions: 30 mM glucose with 10 μM aminoguanidine, 24 h
Method: To elucidate the mechanism for of the wnt pathway activation induced by high glucose, primary bovine retinal capillary endothelial cells (BRCEC) were treated with low glucose (5 mM glucose and 20 mM mannitol), high glucose (30 mM glucose), and high glucose together with a known anti-oxidant (30 mM glucose with 10 μM aminoguanidine) for 24 h. The nuclear levels of β-catenin were examined by immunocytochemistry using the antibody for β-catenin. […] The nuclear translocation of β-catenin induced by high glucose was blocked by aminoguanidine.
According to embodiments of experimental data, cultured BRCEC were exposed to 5 mM glucose plus 20 mM mannitol as control (FIG. 12A), 30 mM glucose (FIG. 12B), and 30 mM glucose plus 10 μM aminoguanidine (AG) (FIG. 12C) for 24 hours. […] In FIG. 12D, protein levels of β-catenin were determined using western blot analysis, and normalized by β-actin levels. Each lane of FIG. 12D represents an individual culture dish.

Question: `[Cl-].[Li+]` [LiCl, reference compound] was tested. Which “nuclear levels of HIF-1α” value ([1]; immunocytochemistry) did it give?
Answer: increased

Question: And the “expression of HIF-1α” value ([1]; western blot)?
Answer: up-regulated

Question: And the “expression of VEGF” value ([1]; western blot)?
Answer: up-regulated

Question: Which “nuclear translocation of β-catenin induced by high glucose” value ([2]; immunocytochemistry) does the source give for `N=C(N)NN` [aminoguanidine] here?
Answer: blocked

Question: And the “total levels of β-catenin increased by high glucose” value ([2]; western blot)?
Answer: blocked
